Measurements taken from patent publication US8912169B2, “Beta-lactamase inhibitors” (VenatoRx Pharmaceuticals, Inc., priority 2012, dated 2014).

Experiments:
Format in all cases: biochemical
VIM-2 = target: T1, VIM-2 (Escherichia coli, UniProt Q5U7L7); assay: β-lactamase enzyme inhibition, VIM-2; conditions: substrate Nitrocefin 100 μM, 486 nm; read-out: Class B VIM-2 IC50
T1 construct: made in house; host or cells: E. coli BL21(DE3)
Procedure: For Vim-2 metallo β-lactamase, the procedure was identical with the following exceptions, first the protein was not pH adjusted to pH 5 with 50 mM sodium acetate, second, the chromatography step was changed to a 5 ml Q sepharose anion exchange column pre-equilibrated with 50 mM Hepes pH 7.5, and elution of the protein was achieved by a linear gradient of NaCl (0-600 mM). Finally, the VIM-2 purification required a second run (3rd step) on the Q sepharose anion exchange column to achieve acceptable purity (>90%).
(§1) An equal volume of diluted enzyme stock was added, and the plates were incubated at 37° C. for 15 min. Nitrocefin was used as substrate for p99 AmpC, VIM-2 and OXA-1 and dispensed into each well at a final concentration of 100 μM. Absorbance at 486 nm was immediately monitored for 10 min using a Biotek Powerwave XS2 microplate spectrophotometer using the GENS software package (Biotek Instruments, Winooski Vt.). In an analogous fashion, imipenem was used as substrate for Kpc-2 and Cefotaxime was used for SHV-5, while changes in absorbance upon hydrolysis of the β-lactam ring were monitored at 300 nm and 260 nm respectively in UV-transparent 96-well microtiter assay plates. Maximum rates of hydrolysis were compared to those in control wells (without inhibitors), and percentages of enzyme inhibition were calculated for each concentration of inhibitor. The concentration of inhibitor needed to reduce the initial rate of hydrolysis of substrate by 50% (IC50) was calculated as the residual activity of β-lactamase at 486 nm using GraFit version 7 kinetics software package (Erithacus Software, Surrey, UK).
(§2) Using the methodology described above, examples of the current invention were evaluated for their ability to inhibit β-lactamase enzymes from all four Ambler classifications (A through D). […] NT=Not tested.

p99 AmpC = target: T2, p99 AmpC (Enterobacter cloacae, UniProt P05364); assay: β-lactamase enzyme inhibition, p99 AmpC
T2 construct: made in house; host or cells: E. coli BL21(DE3)
Procedure: (§3) For SHV-5, Kpc-2, p99AmpC and OXA-1 β-lactamases, E. coli BL21(DE3) bacterial cells carrying expression plasmids (expressed as native untagged proteins) for the individual β-lactamases were grown in 1 L of Superbroth (Teknova Inc. Hollister, Calif.) supplemented with 100 μg/mlkanamycin selection and 1×5052 (0.5% glycerol, 0.05% glucose and 0.2% α-lactose) at 35° C. for 18-20 hours. Cells were harvested by centrifugation (4,000×g, 4° C., 20 min), resuspended in 50 ml of 10 mM HEPES pH 7.5 ( 1/20 of the initial volume). The cells were lysed by sonication (5 pulses of 45 seconds) at 45 W on ice. The lysates were clarified by centrifugation at 10,000×g for 40 minutes at 4° C. Samples were diluted 5-fold in 50 mM sodium acetate pH 5.0, stored overnight at 4° C., after which they were centrifuged at 10,000×g for 30 minutes to clarify, and filtered through 0.45 μm filters. The samples were loaded onto a 5 ml Capto S sepharose cation exchange column (GE Healthcare) pre-equilibrated with 50 mM sodium acetate pH 5.0. The column was washed with 5 column volumes of 50 mM sodium acetate pH 5.0 to wash out unbound protein and a linear gradient of NaCl (0 to 500 mM) was used to elute the protein (over 16 CV) from the column. Fractions were assayed for β-lactamase activity using Centa (Calbiochem, Gibbstown, N.J.) or Nitrocefin (EMD Millipore chemicals, Darmstadt, Germany) as a reporter β-lactamase substrate for activity in the isolated fractions. Active fractions were pooled, concentrated and further purified by gel filtration chromatography on a Superdex 75 prep grade gel filtration column (GE Healthcare, Piscataway, N.J.) pre-equilibrated in 50 mM Hepes pH 7.5, 150 mM NaCl. Active fractions were pooled concentrated, quantitated by BCA protein determination (Thermo Scientific, Rockford, Ill.), dialyzed into PBS and frozen at −80° C. in 20% glycerol until use.
as §1, §2

OXA-1 = target: T3, OXA-1 (Escherichia coli, UniProt P13661); assay: β-lactamase enzyme inhibition, OXA-1; conditions: substrate Nitrocefin 100 μM, 486 nm; read-out: Class D OXA-1 IC50
T3 construct: made in house; host or cells: E. coli BL21(DE3)
Procedure: as §3, §1, §2

SHV-5 = target: T4, SHV-5 (Klebsiella pneumoniae, UniProt P0A3M1); assay: β-lactamase enzyme inhibition, SHV-5
T4 construct: made in house; host or cells: E. coli BL21(DE3)
Procedure: as §3, §1, §2

KPC-2 = target: T5, KPC-2 (Klebsiella pneumoniae, UniProt Q9F663); assay: β-lactamase enzyme inhibition, KPC-2; conditions: substrate imipenem, 300 nm; read-out: Class A KPC-2 IC50
T5 construct: made in house; host or cells: E. coli BL21(DE3)
Procedure: as §3, §1, §2

SMILES | IC50 (VIM-2) | IC50 (p99 AmpC) | IC50 (OXA-1) | IC50 (SHV-5) | IC50 (KPC-2)
CN(C)[C@H]1CC[C@H](CC(=O)N[C@H]2Cc3cccc(C(=O)O)c3OB2O)CC1 [Example 14, (R)-3-(2-(trans-4-(dimethylamino)cyclohexyl)acetamido)-2-hydroxy-3,4-dihydro-2H-benzo[e][1,2]oxaborinine-8-carboxylic acid] | 100 to 1000 nM | < 100 nM | < 100 nM | < 100 nM | < 100 nM
NCCN[C@H]1CC[C@H](CC(=O)N[C@H]2Cc3cccc(C(=O)O)c3OB2O)CC1 [Example 15, (R)-3-(2-(trans-4-(2-aminoethylamino)cyclohexyl)acetamido)-2-hydroxy-3,4-dihydro-2H-benzo[e][1,2]oxaborinine-8-carboxylic acid] | < 100 nM | < 100 nM | 100 to 1000 nM | < 100 nM | < 100 nM
O=C(C[C@H]1CC[C@H](N2CCNCC2)CC1)N[C@H]1Cc2cccc(C(=O)O)c2OB1O [Example 16, (R)-2-hydroxy-3-(2-(trans-4-(piperazin-1-yl)cyclohexyl)acetamido)-3,4-dihydro-2H-benzo[e][1,2]oxaborinine-8-carboxylic acid] | 1000 to 10000 nM | < 100 nM | < 100 nM | < 100 nM | < 100 nM
O=C(C[C@H]1CC[C@@H](N2CCNCC2)CC1)N[C@H]1Cc2cccc(C(=O)O)c2OB1O [Example 17, (R)-2-hydroxy-3-(2-(cis-4-(piperazin-1-yl)cyclohexyl)acetamido)-3,4-dihydro-2H-benzo[e][1,2]oxaborinine-8-carboxylic acid] | 1000 to 10000 nM | < 100 nM | 100 to 1000 nM | 100 to 1000 nM | < 100 nM
N[C@H]1CC[C@H](CCC(=O)N[C@H]2Cc3cccc(C(=O)O)c3OB2O)CC1 [Example 21, (R)-3-(3-(trans-4-aminocyclohexyl)propanamido)-2-hydroxy-3,4-dihydro-2H-benzo[e][1,2]oxaborinine-8-carboxylic acid] | 1000 to 10000 nM | < 100 nM | < 100 nM | < 100 nM | < 100 nM
N=C(N)N[C@H]1CC[C@H](CCC(=O)N[C@H]2Cc3cccc(C(=O)O)c3OB2O)CC1 [Example 22, (R)-3-(3-(trans-4-guanidinocyclohexyl)propanamido)-2-hydroxy-3,4-dihydro-2H-benzo[e][1,2]oxaborinine-8-carboxylic acid] | 100 to 1000 nM | < 100 nM | < 100 nM | < 100 nM | < 100 nM
CN(C)CCN(C)[C@H]1CC[C@H](CC(=O)N[C@H]2Cc3cccc(C(=O)O)c3OB2O)CC1 [Example 23, (R)-3-(2-(trans-4-((2-(dimethylamino)ethyl)(methyl)amino)cyclohexyl)acetamido)-2-hydroxy-3,4-dihydro-2H-benzo[e][1,2]oxaborinine-8-carboxylic acid] | 100 to 1000 nM | < 100 nM | 100 to 1000 nM | < 100 nM | < 100 nM
N=C(N)NCCN[C@H]1CC[C@H](CC(=O)N[C@H]2Cc3cccc(C(=O)O)c3OB2O)CC1 [Example 25, (R)-3-(2-(trans-4-(2-guanidinoethylamino)cyclohexyl)acetamido)-2-hydroxy-3,4-dihydro-2H-benzo[e][1,2]oxaborinine-8-carboxylic acid] | < 100 nM | < 100 nM | < 100 nM | < 100 nM | < 100 nM
O=C(C[C@H]1CC[C@H](NCCO)CC1)N[C@H]1Cc2cccc(C(=O)O)c2OB1O [Example 26, (R)-2-hydroxy-3-(2-(trans-4-(2-hydroxyethylamino)cyclohexyl)acetamido)-3,4-dihydro-2H-benzo[e][1,2]oxaborinine-8-carboxylic acid] | 1000 to 10000 nM | < 100 nM | 100 to 1000 nM | < 100 nM | < 100 nM
O=C(C[C@H]1CC[C@H](NCc2cccnc2)CC1)N[C@H]1Cc2cccc(C(=O)O)c2OB1O [Example 27, (R)-2-hydroxy-3-(2-(trans-4-(pyridin-3-ylmethylamino)cyclohexyl)acetamido)-3,4-dihydro-2H-benzo[e][1,2]oxaborinine-8-carboxylic acid] | 100 to 1000 nM | < 100 nM | < 100 nM | < 100 nM | < 100 nM
O=C(O)CN[C@H]1CC[C@H](CC(=O)N[C@H]2Cc3cccc(C(=O)O)c3OB2O)CC1 [Example 28, (R)-3-(2-(trans-4-(carboxymethylamino)cyclohexyl)acetamido)-2-hydroxy-3,4-dihydro-2H-benzo[e][1,2]oxaborinine-8-carboxylic acid] | 1000 to 10000 nM | < 100 nM | 100 to 1000 nM | < 100 nM | < 100 nM
O=C(C[C@H]1CC[C@H](N2C=NCC2)CC1)N[C@H]1Cc2cccc(C(=O)O)c2OB1O [Example 29, (R)-3-(2-(trans-4-(4,5-dihydro-1H-imidazol-1-yl)cyclohexyl)acetamido)-2-hydroxy-3,4-dihydro-2H-benzo[e][1,2]oxaborinine-8-carboxylic acid] | 100 to 1000 nM | < 100 nM | < 100 nM | < 100 nM | < 100 nM
N=CN[C@H]1CC[C@H](CC(=O)N[C@H]2Cc3cccc(C(=O)O)c3OB2O)CC1 [Example 30, (R)-3-(2-(trans-4-formimidamidocyclohexyl)acetamido)-2-hydroxy-3,4-dihydro-2H-benzo[e][1,2]oxaborinine-8-carboxylic acid] | 100 to 1000 nM | < 100 nM | 100 to 1000 nM | < 100 nM | < 100 nM
O=C(CC1CCCCC1)N[C@H]1Cc2cccc(C(=O)O)c2OB1O [Example 31, (R)-3-(2-cyclohexylacetamido)-2-hydroxy-3,4-dihydro-2H-benzo[e][1,2]oxaborinine-8-carboxylic acid] | 1000 to 10000 nM | < 100 nM | < 100 nM | < 100 nM | < 100 nM
O=C(C[C@H]1CC[C@H](NCc2ccccn2)CC1)N[C@H]1Cc2cccc(C(=O)O)c2OB1O [Example 32, (R)-2-hydroxy-3-(2-(trans-4-(pyridin-2-ylmethylamino)cyclohexyl)acetamido)-3,4-dihydro-2H-benzo[e][1,2]oxaborinine-8-carboxylic acid] | 100 to 1000 nM | < 100 nM | < 100 nM | < 100 nM | < 100 nM
O=C(C[C@H]1CC[C@H](NCC2CCNCC2)CC1)N[C@H]1Cc2cccc(C(=O)O)c2OB1O [Example 33, (R)-2-hydroxy-3-(2-(trans-4-(piperidin-4-ylmethylamino)cyclohexyl)acetamido)-3,4-dihydro-2H-benzo[e][1,2]oxaborinine-8-carboxylic acid] | 100 to 1000 nM | < 100 nM | < 100 nM | < 100 nM | < 100 nM
N=C(N)N1CCC(CN[C@H]2CC[C@H](CC(=O)N[C@H]3Cc4cccc(C(=O)O)c4OB3O)CC2)CC1 [Example 34, (R)-3-(2-(trans-4-((1-carbamimidoylpiperidin-4-yl)methylamino)cyclohexyl)acetamido)-2-hydroxy-3,4-dihydro-2H-benzo[e][1,2]oxaborinine-8-carboxylic acid] | 100 to 1000 nM | < 100 nM | < 100 nM | < 100 nM | < 100 nM
